According to patent US8163767B2, “Heterocyclic Janus Kinase 3 inhibitors” (Astellas Pharma Inc., priority 2005, dated 2012):

Molecular target: T1, human JAK3 (Homo sapiens, UniProt P52333)
T1 construct: His (N); purchased Carna Bioscience Inc. (Kobe, Japan); host or cells: baculovirus expression system
Assay: Determination of Janus Kinase 3 (JAK3) inhibitory activity
Format: biochemical
Conditions: test compound 10^−8M; read-out: IR (JAK3 inhibition rate)
Method: Test 1: Determination of Janus Kinase 3 (JAK3) Inhibitory Activity
The assay for JAK3 activity was performed basically according to the method as proposed by Okimoto et al, as follows.
Purified kinase domain (KD) of human JAK3 was purchased from Carna Bioscience Inc. (Kobe, Japan). 796-1124 (end) amino acids of human JAK3 [accession number #NM_000215] was expressed as N-terminal His-tagged protein (41 kDa) using the baculovirus expression system and purified by using Ni-NTA affinity chromatography.
Biotin-Lyn-Substrate-peptide and ATP were used as substrates. Assay buffer consisted of 15 mM Tris-HCl pH7.5, 0.01% Tween 20 and 2 mM DTT. For the standard assay, 20 μL of substrate solution (Assay buffer containing 627 nM Biotin-Lyn-Substrate-2, 20 μM ATP and 25 mM MgCl2), 10 μL of assay buffer containing test compound and 20 μL of enzyme solution were added to the plate and mixed well.
After 1 hour incubation at ambient temperature, the plate was washed 4 times with wash buffer (50 mM Tris-HCl pH 7.5, 150 mM NaCl, 0.02% Tween 20), and then blocking buffer (wash buffer containing 0.1% Bovine serum albumin) was added to the plate. After 30 minutes incubation at ambient temperature, blocking buffer was removed and HRP-PY-20 solution (HRP-PY-20 500 times diluted with blocking buffer) was added. After 30 minutes incubation at ambient temperature, the plate was washed 4 times and TMB substrate solution (Sigma) was added to the plate. After 4 minutes incubation at ambient temperature, 1 M H2SO4 was added to the plate to stop the reaction. Enzyme activity was measured as optical density at 450 nm.

T1 sequence (P52333 796-1124): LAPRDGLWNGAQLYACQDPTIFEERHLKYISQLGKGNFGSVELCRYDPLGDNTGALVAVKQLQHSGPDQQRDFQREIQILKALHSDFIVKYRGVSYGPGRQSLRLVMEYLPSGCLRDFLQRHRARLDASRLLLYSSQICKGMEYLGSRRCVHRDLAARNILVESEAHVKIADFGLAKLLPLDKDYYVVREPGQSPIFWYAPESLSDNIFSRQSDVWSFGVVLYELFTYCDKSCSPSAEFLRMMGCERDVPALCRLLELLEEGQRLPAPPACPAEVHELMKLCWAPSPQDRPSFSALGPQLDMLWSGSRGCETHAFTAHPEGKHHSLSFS

inhibition at 0.01 µM: > 50%
Compound: C[C@@H]1CCN(c2ccc(C#N)cn2)C[C@@H]1n1c(=O)[nH]c2cnc3[nH]ccc3c21 (relative stereo) [Example 323, rel-6-[(3R,4R)-4-Methyl-3-(2-oxo-3,6-dihydroimidazo[4,5-d]-pyrrolo[2,3-b]pyridin-1(2H)-yl)piperidin-1-yl]nicotinonitrile]
